Measured values reported in ChEMBL document CHEMBL1154526, “Novel non-active site inhibitor of Cryptosporidium hominis TS-DHFR identified by a virtual screen” (Bioorg Med Chem Lett, 2009).
Residue numbers refer to the chain shown, from its start. pIC50, pKd: −log10 of the molar value.

Experiments:
[1] = Inhibition of Cryptosporidium hominis TS-DHFR by spectroscopic assay
Dihydrofolate reductase = molecular target: T1, Dihydrofolate reductase (Homo sapiens, UniProt P00374); test: Inhibition of human DHFR
T1 sequence (P00374 whole entry): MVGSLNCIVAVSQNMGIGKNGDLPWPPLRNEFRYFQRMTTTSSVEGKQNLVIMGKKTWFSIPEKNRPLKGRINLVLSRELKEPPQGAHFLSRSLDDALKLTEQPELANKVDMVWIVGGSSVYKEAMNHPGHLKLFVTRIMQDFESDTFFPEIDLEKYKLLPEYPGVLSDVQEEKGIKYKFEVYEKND

Cryptosporidium hominis [2] = settings: 200 uM
Description: Activity at Cryptosporidium hominis DHFR at 200 uM using NADPH substrate by steady state competition assay

[3] = Binding affinity to Cryptosporidium hominis TS-DHFR by burst amplitude assay
[4] = molecular target: T2, Bifunctional dihydrofolate reductase-thymidylate synthase (Toxoplasma gondii, UniProt Q07422); test: Inhibition of Toxoplasma gondii TS-DHFR
T2 sequence (Q07422 whole entry): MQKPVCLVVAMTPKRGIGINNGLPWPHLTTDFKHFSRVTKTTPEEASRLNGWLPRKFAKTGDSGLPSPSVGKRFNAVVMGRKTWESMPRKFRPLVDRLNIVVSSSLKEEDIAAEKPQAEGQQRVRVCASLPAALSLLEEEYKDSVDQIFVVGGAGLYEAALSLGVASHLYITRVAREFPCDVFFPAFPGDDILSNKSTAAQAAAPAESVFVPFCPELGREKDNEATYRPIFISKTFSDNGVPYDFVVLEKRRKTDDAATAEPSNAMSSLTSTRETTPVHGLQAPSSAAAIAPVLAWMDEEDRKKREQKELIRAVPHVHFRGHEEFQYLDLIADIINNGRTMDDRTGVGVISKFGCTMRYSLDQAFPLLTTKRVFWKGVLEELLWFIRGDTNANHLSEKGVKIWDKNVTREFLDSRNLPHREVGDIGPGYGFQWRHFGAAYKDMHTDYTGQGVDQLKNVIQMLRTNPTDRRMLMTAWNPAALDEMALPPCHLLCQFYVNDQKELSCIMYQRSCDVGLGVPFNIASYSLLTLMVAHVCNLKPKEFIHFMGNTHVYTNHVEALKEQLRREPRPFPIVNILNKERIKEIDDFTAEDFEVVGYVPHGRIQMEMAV

[5] = tested on: T3, Dihydrofolate reductase (Cryptosporidium hominis), Q27552 [D201A]; test: Inhibition of Cryptosporidium hominis DHFR D201A mutant; design: scale not given: the % may be the effect or the level left
T3 sequence (whole entry): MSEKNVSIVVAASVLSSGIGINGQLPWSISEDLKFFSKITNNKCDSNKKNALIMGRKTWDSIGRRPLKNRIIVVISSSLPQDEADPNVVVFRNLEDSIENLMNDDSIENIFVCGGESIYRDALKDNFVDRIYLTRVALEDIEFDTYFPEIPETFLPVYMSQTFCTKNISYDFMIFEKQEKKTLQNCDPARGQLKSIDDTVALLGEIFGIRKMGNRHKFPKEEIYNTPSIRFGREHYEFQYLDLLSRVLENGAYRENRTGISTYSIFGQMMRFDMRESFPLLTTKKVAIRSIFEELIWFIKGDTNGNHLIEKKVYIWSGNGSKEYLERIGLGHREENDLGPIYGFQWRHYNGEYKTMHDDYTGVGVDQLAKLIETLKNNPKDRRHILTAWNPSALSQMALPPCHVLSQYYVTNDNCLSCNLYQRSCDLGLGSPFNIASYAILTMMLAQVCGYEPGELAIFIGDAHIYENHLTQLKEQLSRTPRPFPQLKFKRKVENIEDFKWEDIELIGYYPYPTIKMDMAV

[6] = Inhibition of Cryptosporidium hominis 80 to 250 nM TS-DHFR by spectroscopic assay
Cryptosporidium hominis [7] = settings: 200 uM; remark: listed apart in the source
Description: Activity at Cryptosporidium hominis DHFR at 200 uM using dihydrofolate substrate by steady state competition assay

Thymidylate synthase = Thymidylate synthase (Homo sapiens, UniProt P04818); test: Inhibition of human thymidylate synthase
Sequence of Thymidylate synthase (P04818 whole entry): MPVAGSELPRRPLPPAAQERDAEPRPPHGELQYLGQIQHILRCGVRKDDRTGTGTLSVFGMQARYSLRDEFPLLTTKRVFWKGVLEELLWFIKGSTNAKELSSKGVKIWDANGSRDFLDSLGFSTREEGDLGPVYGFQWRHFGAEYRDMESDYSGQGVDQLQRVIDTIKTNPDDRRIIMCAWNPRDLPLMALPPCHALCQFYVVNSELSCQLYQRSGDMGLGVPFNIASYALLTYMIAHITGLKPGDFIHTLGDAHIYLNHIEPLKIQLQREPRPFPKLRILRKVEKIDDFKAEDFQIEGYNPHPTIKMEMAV

[8] = tested on: T4, Dihydrofolate reductase (Cryptosporidium hominis), Q27552 [R190G]; test: Inhibition of Cryptosporidium hominis DHFR R190G mutant; design: scale not given: the % may be the effect or the level left
T4 sequence (whole entry): T3 sequence (whole entry) with R190G, A201D

With CC(=O)N[C@@H]1[C@@H](O)[C@H](O[C@@H]2O[C@H](CO)[C@@H](O)[C@H](O)[C@H]2NC(C)=O)[C@@H](CO)O[C@H]1O [CHITODEXTRIN] the pIC50 [1] was < 3.30.

For C[C@H]1O[C@@H](O[C@H]2[C@@H](O)C[C@H](O[C@H]3[C@@H](O)C[C@H](O[C@H]4CC[C@@]5(C)[C@H](CC[C@@H]6[C@@H]5C[C@@H](O)[C@]5(C)[C@@H](C7=CC(=O)OC7)CC[C@]65O)C4)O[C@@H]3C)O[C@@H]2C)C[C@H](O)[C@@H]1O [DIGOXIN], the pIC50 [1] was < 3.30.

In the case of CC(=O)N1CCN(c2ccc(OCC3COC(Cn4ccnc4)(c4ccc(Cl)cc4Cl)O3)cc2)CC1 (configuration not stated) [KETOCONAZOLE], the pIC50 [1] was < 3.30.

With Cc1cc2nc3c(=O)[nH]c(=O)nc-3n(C[C@H](O)[C@H](O)[C@H](O)COP(=O)(O)O)c2cc1C [RIBOFLAVIN 5'-PHOSPHATE] the pIC50 (Dihydrofolate reductase) was 3.49, the Km (Cryptosporidium hominis [2]) was 3 µM and the Vmax (Cryptosporidium hominis [2]) was 1.77 µmol/min. The pKd [3] was 4.32, the pIC50 [4] was < 3.30 and the Activity [5] was 10%. It also gave a pIC50 [6] of 4.26, a Km (Cryptosporidium hominis [7]) of 7.2 µM and a Vmax (Cryptosporidium hominis [7]) of 1.8 µmol/min. The pIC50 (Thymidylate synthase) was < 3.30, the Activity [8] was 20% and the pIC50 [1] was 4.26.

With COc1cccc2c1C(=O)C1=C(C2=O)C(O)C2=C(C1O)[C@@H](C[C@@H]1C[C@H](N)[C@@H](O)[C@H](C)O1)C[C@@](O)(/C(C)=N/NC(=O)c1ccccc1)C2 (some centres not stated) [RUBIDAZONE] the pIC50 [1] was < 3.30.

In the case of COC1=C(N)C(=O)c2nc(-c3nc(C(=O)O)c(C)c(-c4ccc(OC)c(OC)c4O)c3N)ccc2C1=O [STREPTONIGRIN], the pIC50 [1] was 4.10.
